In brackets after ≈: the same amount, converted by molar mass.

For this experiment, the system named is HeLa cells. Put plainly: Inhibitory effects of compounds on HeLa cell proliferation in vitro (96 h). The experiment is classed as cell-based. The following applies: Homo sapiens, exponentially growing, concentration at 50% inhibition of cell growth. As for the experimental part:
INHIBITORY EFFECTS OF COMPOUNDS ON HeLa CELL PROLIFERATION The inhibitory effect of various compounds of formula (1) on HeLa cell proliferation invitro was determined according to the method described by Sunkara et al. [J. Natl. Cancer Instit. 70, 505-509 (1983)]. Exponentially growing HeLa cells were incubated in the presence or absence of various concentrations of test compounds for 96 hours. IC50 values were calculated which represent the test compound concentration at 50% inhibition of cell growth.
Usually IC50 stands for the concentration that gives 50% inhibition. Higher therefore signals weaker potency. With `Nc1ncnc2c1ncn2CC/C(=C\F)CO` [Compound A, (E)-4-(Adenin-9-yl)-2-hydroxymethyl-1-fluorobut-1-ene], the IC50 was 0.25 µg/mL (≈ 1.05 µM).

In turn, `Nc1ncnc2c1ncn2CC/C(=C/F)CO` [Compound B, (Z)-4-(Adenin-9-yl)-2-hydroxymethyl-1-fluorobut-1-ene] came in with an IC50 of 1 µg/mL (≈ 4.22 µM).

For the molecule `C=C(CO)CCn1cnc2c(N)ncnc21` [Compound C, 4-(Adenin-9-yl)-2-hydroxymethylbut-1-ene], the IC50 was 0.6 µg/mL (≈ 2.74 µM).

These data come from patent US6017923A, “Carbo-acyclic nucleoside derivatives as antiviral and antineoplastic agents” (Hoechst Marion Roussel, Inc., priority 1996, dated 2000).
